Experimental findings from patent publication US20160326098A1, “Pharmaceutically Active Compound for Use as Anti-inflammatory Agent” (Pax Forschung GmbH, priority 2013, published 2016) are described below.

Common to all, as to format: in vivo
One series concerns gastric mucosa. The series can be described thus: Macroscopic analysis (score) of gastric mucosa damage, mice. To be noted: 1.11 mmol/kg, vs groups A and C, FIG. 10. As for the experimental part:
First experiments regarding the effect of the compound of formula (I) and a pharmaceutical composition comprising the compound of formula (I) (clear aqueous solution of compound of formula (I) at pH 4.8), respectively, on gastric injury without inflammation were conducted on mice. 48 animals were randomly allocated into three groups. Group A (n=16) served as sham-operated controls. Samples of all animals were drawn on day 1 of the clinical tests. On day 2 the animals of group B (n=16) were force-fed acetylsalicylic acid (ASS) (1.11 mmol/kg body weight). Group C (n=16) was force-fed 1.11 mmol/kg body weight of the compound according to the invention. Group A only received the respective solvent (25% ethanol in water). One day after the gavage, additional samples were drawn. Fluorescence confocal endomicroscopy was performed to examine the microvasculature and morphologic changes of the mucosa of the distal colon, and full-thickness tissue samples and venous blood samples were taken to determine the biochemical changes in the colon and plasma. The effects were determined by way of measurement of body weight, blood gas analysation and biopsy. […]
The average of the three criteria is calculated for the animals of each group, wherein “0” means for criteria 1 small or no bleeding area, for criteria 2 no bleeding area and for criteria 3 no ulcer. […]

The subject of another series is TNF-α. The series can be described thus: Plasma TNF-α level, rats with TNBS-induced colitis. The following applies: 1.11 mmol/kg, vs untreated colitis group M, FIG. 30. As for the experimental part:
(§1) Colonic inflammation was induced by intracolonic administration of TNBS (2,4,6-trinitrobenzenesulfonic acid) (40 mg/kg in 0.25 ml of 25% aqueous ethanol) through an 8-cm-long soft plastic catheter under transient diethylether anesthesia. In the sham-operated groups, only the vehicle for TNBS was administered. The animals were deprived of food, but not water, for 12 h before the enemas.
Plasma TNF-α concentrations were determined in duplicate by means of a commercially available enzyme-linked immunosorbent assay (Quantikine ultrasensitive enzyme-linked immunosorbent assay kit for rat TNF-α; Biomedica Hungaria Kft, Budapest, Hungary). […]
The above-described clinical studies were repeated with animals having colitis which was induced as described above. […] Two days after the enema the effects of the treatment were determined by measurement of body weight, blood gas analysis and biopsy. […] Surgery was performed to allow registration of the hemodynamic parameters at 1 h intervals for 6 h (cardiac output [CO] data were measured only at the end of the experiments). […] In addition, fluorescence confocal endomicroscopy was performed to examine the microvasculature and morphologic changes of the mucosa of the distal colon, and full-thickness tissue samples and venous blood samples were taken to determine the biochemical changes in the colon and plasma.

The test system of series [1] is High mobility group box protein 1 (HMGB-1). Kind of series: Plasma high-mobility group protein B1, rats with TNBS-induced colitis. The following applies: 1.11 mmol/kg, day 3, FIG. 31. As for the experimental part:
as §1
High mobility group box protein 1 (HMGB-1) measurements in plasma:
Blood samples were drawn into chilled polypropylene tubes containing EDTA (1 mg/ml) and were centrifuged at 1200 g for 10 min at 4° C. The plasma samples were then collected and stored at −70° C. until assay. Plasma concentration of HMGB-1 was measured by a commercially available HMGB-1 ELISA kit (Shino-Test Corporation, Kanagawa, Japan).
The above-described clinical studies were repeated with animals having colitis which was induced as described above. […] Two days after the enema the effects of the treatment were determined by measurement of body weight, blood gas analysis and biopsy. […] Surgery was performed to allow registration of the hemodynamic parameters at 1 h intervals for 6 h (cardiac output [CO] data were measured only at the end of the experiments). […]

Series [2] relates to collagen-induced arthritis (CIA). The series can be described thus: Collagen-induced arthritis (CIA), thermal stimulation (inflammatory hyperalgesia). To be noted: mice with CIA, 1.11 mmol/kg force-fed, vs untreated arthritis group 2, FIG. 37. On the procedure: Further clinical studies were performed with animals having collagen-induced arthritis (CIA). In these studies, mice were used as test animals. At the age of eight weeks, the animals were immunized intradermally at the base of the tail with 50 μl of bovine collagen II emulsified in 50 μl of complete Freund's adjuvant. A second booster immunization was performed 3 weeks later, when 50 μl of incomplete Freund's adjuvant was administered with or without the same volume of collagen H. The animals were randomly allocated into experimental groups wherein group 1 served as control, having no arthritis, group 2 served as second control having arthritis, but receiving no further treatment, and group 3 having arthritis and being treated with compound according to the invention. The animals of group 3 were force-fed 1.11 mmol/kg body weight of the compound according to the invention from the first immunization until the end of the experiments. The severity of CIA was evaluated using a clinical scoring system; inflammatory hyperalgesia was detected with thermal stimulation.
The animals were acclimatized to the experimental conditions for 1 hour preceding the test. Then they were placed onto a heating plate set to 40° C. to assess their thermal hypersensitivity. […]

On to `CC(=O)Oc1ccccc1C(=O)O` [ASS, acetylsalicylic acid, reference compound], for which the “macroscopic analysis of the mucosa (score)” value in the series with gastric mucosa is “significant damage of the mucosa”.
For the compound `CC(=O)Oc1ccccc1C(=O)NC(CO)(CO)CO` [compound according to the invention], in the series with TNF-α, the “plasma TNF-α level” value is “significant decrease in the TNF-α level”. Further, in series [1], the “concentration of the high-mobility group protein B1 in the plasma” value is “significant reduction”. Moreover, the “thermosensitivity (thermal stimulation score, 40° C. heating plate)” value in series [2] is reported as “significantly lower thermosensitivity”.
